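96-well plates; 48 h exposure; 5 concentrations. Endpoints by linear interpolation between flanking doses. Not reached: highest tested concentration assigned. GI50 = concentration required for 50% inhibition of growth.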 Activity calls are given as the source filed them. Cut-off read from the data, not from the text of the source: active = GI50 up to about 1.1 µM and inactive = higher.
Legend:
Assay in all cases: DTP human tumour cell line panel, 48 h
[1] = test system: UACC-62
[2] = test system: SF-268
[3] = test system: NCI-H460
[4] = test system: HCT-116
[5] = test system: CCRF-CEM
[6] = test system: ACHN
[7] = test system: NCI-H226
[8] = test system: UO-31
[9] = test system: HT-29
[10] = test system: MCF7
[11] = test system: M14
[12] = test system: DU-145
[13] = test system: A549
[14] = test system: SF-539
[15] = test system: SW-620
[16] = test system: PC-3
[17] = test system: HCC 2998
[18] = test system: HOP-92
[19] = test system: MDA-MB-435
[20] = test system: OVCAR-3
[21] = test system: CAKI-1
[22] = test system: IGROV-1
[23] = test system: SK-OV-3
[24] = test system: NCI-H23
[25] = test system: RPMI-8226
[26] = test system: RXF 393
[27] = test system: KM12
[28] = test system: HOP-62
[29] = test system: U-251
[30] = test system: OVCAR-4
[31] = test system: SR
[32] = test system: TK-10
[33] = test system: SNB-19
[34] = test system: SN12C
[35] = test system: MDA-MB-231
[36] = test system: T47D
[37] = test system: COLO 205
[38] = test system: K562
[39] = test system: SK-MEL-2
[40] = test system: NCI-H522
[41] = test system: A498
[42] = test system: NCI/ADR-RES
[43] = test system: SNB-75
[44] = test system: OVCAR-8
[45] = test system: OVCAR-5
[46] = test system: Malme-3M
[47] = test system: SK-MEL-5
[48] = test system: Hs-578T
[49] = test system: UACC-257
[50] = test system: HL-60
[51] = test system: SK-MEL-28
[52] = test system: MOLT-4
[53] = test system: HCT-15
[54] = test system: LOX IMVI
[55] = test system: SF-295
[56] = test system: BT-549
[57] = test system: EKVX
[58] = test system: MDA-N
[59] = test system: 786-0

Measured: GI50

OC[P+](CO)(CO)C12CC3CC(CC(C3)C1)C2
inactive: [1] > 100 µM | [2] > 100 µM | [3] 76.4 µM | [4] > 87.3 µM | [5] 4.9 µM | [6] > 100 µM | [7] > 100 µM | [8] > 78.3 µM | [9] 48.5 µM | [10] > 100 µM | [11] > 100 µM | [12] > 100 µM | [13] > 100 µM | [14] > 100 µM | [15] > 100 µM | [16] > 100 µM | [17] > 100 µM | [18] > 86.9 µM | [19] > 100 µM | [20] > 87.9 µM | [21] > 100 µM | [22] 4.85 µM | [23] > 100 µM | [24] > 88.3 µM | [25] 21.9 µM | [26] > 63.2 µM | [27] > 100 µM | [28] > 100 µM | [29] > 100 µM | [30] > 48.3 µM | [31] 16.7 µM | [32] > 100 µM | [33] 87.1 µM | [34] > 100 µM | [35] > 100 µM | [36] > 100 µM | [37] > 100 µM | [38] 24.5 µM | [39] > 100 µM | [40] > 70.8 µM | [41] > 100 µM | [42] > 100 µM | [43] > 64.4 µM | [44] > 100 µM | [45] > 100 µM | [46] > 100 µM | [47] > 100 µM | [48] > 100 µM | [49] > 100 µM | [50] 10.3 µM | [51] > 100 µM | [52] 26.4 µM | [54] 4.67 µM | [55] > 30.1 µM | [56] > 100 µM | [57] > 100 µM | [58] > 100 µM
> 89.5 µM: [53]

O=C(CCOS(=O)(=O)CF)N1CCN(C(=O)CCOS(=O)(=O)CF)CC1
> 100 µM: [53]
inactive: [1] 16.4 µM | [2] 24.4 µM | [3] 5.27 µM | [4] 57 µM | [5] 3.27 µM | [6] 17.1 µM | [7] > 88.7 µM | [8] 66.7 µM | [9] > 100 µM | [10] 18.6 µM | [11] 58.6 µM | [12] 35.9 µM | [13] 59 µM | [14] 28.8 µM | [15] > 100 µM | [16] > 100 µM | [17] > 100 µM | [18] 35.6 µM | [19] > 100 µM | [20] > 100 µM | [21] 5.36 µM | [22] > 69.5 µM | [23] > 27.2 µM | [24] 29.6 µM | [25] > 46.5 µM | [26] 59.3 µM | [27] > 100 µM | [28] 43.2 µM | [29] 29.8 µM | [30] > 100 µM | [31] 9.08 µM | [32] > 100 µM | [33] 58.3 µM | [34] 35.1 µM | [35] > 100 µM | [36] 43.6 µM | [37] > 80.7 µM | [38] 56.5 µM | [39] > 100 µM | [40] 31.6 µM | [41] > 100 µM | [42] > 100 µM | [43] 10.1 µM | [44] 60.1 µM | [45] > 100 µM | [59] 28.4 µM | [46] > 57.3 µM | [47] 51.6 µM | [48] 22.2 µM | [49] > 100 µM | [50] 5.06 µM | [51] > 100 µM | [52] 3.03 µM | [54] 16.9 µM | [55] 32.6 µM | [56] > 100 µM | [57] > 100 µM | [58] > 100 µM
